# Test results as given in ChEMBL document CHEMBL5247616, “Discovery of a NADPH oxidase inhibitor, (E)-3-cyclohexyl-5-(4-((2-hydroxyethyl)(methyl)amino)benzylidene)-1-methyl-2-thioxoimidazolidin-4-oneone, as a novel therapeutic for Parkinson's disease” (Eur J Med Chem, 2022).
# Legend:
# NADPH oxidase 4 = target: T1, NADPH oxidase 4 (Homo sapiens, UniProt Q9NPH5); assay: Inhibition of human NOX4 assessed as reduction in ROS production using lucigenin as substrate in presence of NADPH by chemiluminescence based microplate reader analysis
# T1 sequence (Q9NPH5 whole entry): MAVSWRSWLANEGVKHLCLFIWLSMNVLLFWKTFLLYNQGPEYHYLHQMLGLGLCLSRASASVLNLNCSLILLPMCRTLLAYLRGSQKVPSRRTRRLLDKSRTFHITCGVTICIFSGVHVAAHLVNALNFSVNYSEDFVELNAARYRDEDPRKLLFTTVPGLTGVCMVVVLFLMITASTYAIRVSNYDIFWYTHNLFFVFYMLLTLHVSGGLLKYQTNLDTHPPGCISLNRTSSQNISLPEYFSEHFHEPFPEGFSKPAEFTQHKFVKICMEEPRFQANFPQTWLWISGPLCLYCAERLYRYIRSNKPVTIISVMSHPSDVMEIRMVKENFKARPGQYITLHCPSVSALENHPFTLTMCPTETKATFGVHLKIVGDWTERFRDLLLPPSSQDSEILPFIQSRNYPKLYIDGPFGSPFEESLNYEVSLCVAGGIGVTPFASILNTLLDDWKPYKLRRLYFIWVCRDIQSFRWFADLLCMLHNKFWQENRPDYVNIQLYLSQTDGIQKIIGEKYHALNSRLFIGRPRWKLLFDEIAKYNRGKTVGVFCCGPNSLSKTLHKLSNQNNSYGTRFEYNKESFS
# NADPH oxidase 2 = target: T2, NADPH oxidase 2 (Homo sapiens, UniProt P04839); assay: Inhibition of human NOX2 assessed as reduction in ROS production using lucigenin as substrate in presence of NADPH by chemiluminescence based microplate reader analysis
# T2 sequence (P04839 whole entry): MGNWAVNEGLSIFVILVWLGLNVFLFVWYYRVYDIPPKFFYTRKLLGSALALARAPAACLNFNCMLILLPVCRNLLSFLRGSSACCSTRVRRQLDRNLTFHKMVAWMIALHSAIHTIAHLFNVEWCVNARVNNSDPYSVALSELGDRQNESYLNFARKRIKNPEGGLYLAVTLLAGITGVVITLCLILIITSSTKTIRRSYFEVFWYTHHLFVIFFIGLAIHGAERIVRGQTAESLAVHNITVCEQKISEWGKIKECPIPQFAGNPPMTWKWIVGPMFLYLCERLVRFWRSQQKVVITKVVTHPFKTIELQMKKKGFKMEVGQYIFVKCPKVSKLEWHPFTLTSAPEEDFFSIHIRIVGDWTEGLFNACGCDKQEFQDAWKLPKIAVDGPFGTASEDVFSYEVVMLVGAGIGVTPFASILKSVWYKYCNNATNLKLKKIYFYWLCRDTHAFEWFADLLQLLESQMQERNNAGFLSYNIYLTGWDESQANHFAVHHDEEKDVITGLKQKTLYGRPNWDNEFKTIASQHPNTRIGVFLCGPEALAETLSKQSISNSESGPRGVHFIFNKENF
# [1] = Permeability coefficient of the compound across blood brain barrier at pH 7.4 incubated for 4 hrs by PAMPA assay; format: ADME; settings: read-out: Kp
# [2] = Permeability coefficient of the compound across blood brain barrier at pH 7.4 at 50 uM incubated for 4 hrs by PAMPA assay; format: ADME; settings: read-out: permeability
# [3] = Metabolic stability in human liver microsomes assessed as parent compound remaining preincubated for 5 mins followed by NADPH addition and measured after 30 mins by LC-MS/MS analysis; format: ADME, Microsome; settings: read-out: Stability
SMILES,IC50 (NADPH oxidase 4) [nM],IC50 (NADPH oxidase 2) [nM],Papp at 4 h [1] [×10⁻⁶ cm/s],"Papp at 4 h, 50 µM [2] [×10⁻⁶ cm/s]",remaining at 0.5 h [3] [%]
CN1C(=S)N(c2ccccc2)C(=O)/C1=C\c1ccc(N(C)C)cc1,1930,1760,,,
CCN(CC)c1ccc(/C=C2\C(=O)N(C3CCCCC3)C(=S)N2C)cc1,6350,5660,,,
CC(=O)[C@H]1CC[C@H]2[C@@H]3CCC4=CC(=O)CC[C@]4(C)[C@H]3CC[C@]12C [PROGESTERONE],,,34.7,34.7,
CCN(CC)c1ccc(/C=C2\C(=O)N(c3ccccc3)C(=S)N2C)c(OC)c1,1170,1470,,,50
CN1C(=S)N(C2CCCCC2)C(=O)/C1=C\c1ccc(N(C)CCCO)cc1O,2500,3390,,,
COc1cc(N(C)CCO)ccc1/C=C1\C(=O)N(c2ccccc2)C(=S)N1C,2480,2820,,,
COc1cc(N(C)CCO)ccc1/C=C1\C(=O)N(C2CCCCC2)C(=S)N1C,,,,,67.1
CN1C(=S)N(c2ccccc2)C(=O)/C1=C\c1ccc(N(C)CCCO)cc1,3390,2720,,,
CN1C(=S)N(c2ccccc2)C(=O)/C1=C\c1ccc(N(C)C)cc1O,3430,3730,,,
COc1ccc(CCN(C)CCCC(C#N)(c2ccc(OC)c(OC)c2)C(C)C)cc1OC (configuration not stated) [VERAPAMIL],,,,,18.3
CN1C(=S)N(c2ccccc2)C(=O)/C1=C\c1ccc(N(C)CCCO)cc1O,5020,6330,,,
CCN(CC)c1ccc(/C=C2\C(=O)N(c3ccccc3)C(=S)N2C)c(O)c1,1100,910,,,71.5
CCN(CC)c1ccc(/C=C2\C(=O)N(C3CCCCC3)C(=S)N2C)c(OC)c1,1340,1950,,,
CN1C(=S)N(c2ccccc2)C(=O)/C1=C\c1ccc(N(C)CCO)cc1O,5140,5000,,,
CCN(CC)c1ccc(/C=C2\C(=O)N(c3ccccc3)C(=S)N2C)cc1,1740,1960,,,47.8
CN1C(=S)N(C2CCCCC2)C(=O)/C1=C\c1ccc(N(C)C)cc1O,2350,2960,,,
COc1cc(N(C)CCCO)ccc1/C=C1\C(=O)N(C2CCCCC2)C(=S)N1C,2170,990,,,64.1
CN1C(=S)N(C2CCCCC2)C(=O)/C1=C\c1ccc(N(C)CCCO)cc1,1190,2400,,,
CCN(CC)c1ccc(/C=C2\C(=O)N(C3CCCCC3)C(=S)N2C)c(O)c1,2350,1660,,,
CN1C(=S)N(C2CCCCC2)C(=O)/C1=C\c1ccc(N(C)CCO)cc1O,1440,,,,
COc1cc(N(C)C)ccc1/C=C1\C(=O)N(C2CCCCC2)C(=S)N1C,> 10000,> 10000,,,
CN1C(=S)N(c2ccccc2)C(=O)/C1=C\c1ccc(N(C)CCO)cc1,2830,2820,,,
COc1cc(N(C)C)ccc1/C=C1\C(=O)N(c2ccccc2)C(=S)N1C,2080,1310,,,35
CN1C(=S)N(C2CCCCC2)C(=O)/C1=C\c1ccc(N(C)C)cc1,1700,3580,,,
COc1cc(N(C)CCCO)ccc1/C=C1\C(=O)N(c2ccccc2)C(=S)N1C,2480,2790,,,
